Values quoted from earlier work in patent US20250057824A1, “NOSE-TO-BRAIN DELIVERY FORMULATION OF NIMODIPINE, PREPARATION AND USE” (Nasal-Phyto (Shanghai) Pharmaceutical Technology Co., Ltd., priority 2023, published 2025).
Converted amounts (≈) assume the structure as drawn.

solubility in water: 2 µg/mL (≈ 4.78 µM)
SMILES: COCCOC(=O)C1=C(C)NC(C)=C(C(=O)OC(C)C)C1c1cccc([N+](=O)[O-])c1 (stereo not shown) [Nimodipine]
